Measurements published in PubChem BioAssay AID2060618 (Molecular Pharmacology Branch, DTP, NCI, 2025).

System: 454973-116-R2-J3-PDC spheroids, percent test/control viability
Test: Anticancer human tumor 454973-116-R2-J3-PDC patient-derived pancreatic carcinoma cell line growth inhibition [CLK]
Settings: spheroids with HUVEC and MSC; for IC50: curve of first compound; for viability, T/C: stronger effect = lower value
Method in brief: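 Multi-cell-type spheroids combined patient-derived tumor cells with HUVEC endothelial cells and human mesenchymal stem cells. Paired agents were dosed in half-log steps down from about clinical Cmax, or from 10 microM where Cmax was unknown.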
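Further: spheroids exposed to compounds for 7 days before readout.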

## CC1(C)CCC(CN2CCN(c3ccc(C(=O)NS(=O)(=O)c4ccc(NCC5CCOCC5)c([N+](=O)[O-])c4)c(Oc4cnc5[nH]ccc5c4)c3)CC2)=C(c2ccc(Cl)cc2)C1 + CN1CCN(c2cc(C(=O)Nc3cc4cc(-c5cnn(C)c5)ccc4cn3)ccn2)CC1
Second compound 0.0316 µM
  IC50: 7.12 µM
Second compound 0.1 µM
  IC50: 5.23 µM
Second compound 0.316 µM
  IC50: < 0.0316 µM
Second compound 1 µM
  IC50: < 0.0316 µM
Second compound 3.16 µM
  IC50: < 0.0316 µM
Second compound 10 µM
  IC50: < 0.0316 µM
Second compound 0.0316 µM, first compound 0.0316 µM
  viability, T/C: 99.1%
Second compound 0.0316 µM, first compound 0.1 µM
  viability, T/C: 93.8%
Second compound 0.0316 µM, first compound 0.316 µM
  viability, T/C: 96.2%
Second compound 0.0316 µM, first compound 1 µM
  viability, T/C: 110%
Second compound 0.0316 µM, first compound 3.16 µM
  viability, T/C: 105%
Second compound 0.0316 µM, first compound 10 µM
  viability, T/C: 28.6%
Second compound 0.1 µM, first compound 0.0316 µM
  viability, T/C: 80%
Second compound 0.1 µM, first compound 0.1 µM
  viability, T/C: 74.3%
Second compound 0.1 µM, first compound 0.316 µM
  viability, T/C: 69.3%
Second compound 0.1 µM, first compound 1 µM
  viability, T/C: 84%
Second compound 0.1 µM, first compound 3.16 µM
  viability, T/C: 72.7%
Second compound 0.1 µM, first compound 10 µM
  viability, T/C: 20.2%
Second compound 0.316 µM, first compound 0.0316 µM
  viability, T/C: 1.7%
Second compound 0.316 µM, first compound 0.1 µM
  viability, T/C: 1.6%
Second compound 0.316 µM, first compound 0.316 µM
  viability, T/C: 2.41%
Second compound 0.316 µM, first compound 1 µM
  viability, T/C: 3.39%
Second compound 0.316 µM, first compound 3.16 µM
  viability, T/C: 0.47%
Second compound 0.316 µM, first compound 10 µM
  viability, T/C: 2.29%
Second compound 1 µM, first compound 0.0316 µM
  viability, T/C: 0.12%
Second compound 1 µM, first compound 0.1 µM
  viability, T/C: 0.14%
Second compound 1 µM, first compound 0.316 µM
  viability, T/C: 0.18%
Second compound 1 µM, first compound 1 µM
  viability, T/C: 0.14%
Second compound 1 µM, first compound 3.16 µM
  viability, T/C: 0.16%
Second compound 1 µM, first compound 10 µM
  viability, T/C: 0.4%
Second compound 3.16 µM, first compound 0.0316 µM
  viability, T/C: 0.18%
Second compound 3.16 µM, first compound 0.1 µM
  viability, T/C: 0.15%
Second compound 3.16 µM, first compound 0.316 µM
  viability, T/C: 0.18%
Second compound 3.16 µM, first compound 1 µM
  viability, T/C: 0.24%
Second compound 3.16 µM, first compound 3.16 µM
  viability, T/C: 0.61%
Second compound 3.16 µM, first compound 10 µM
  viability, T/C: 0.7%
Second compound 10 µM, first compound 0.0316 µM
  viability, T/C: 0.14%
Second compound 10 µM, first compound 0.1 µM
  viability, T/C: 0.13%
Second compound 10 µM, first compound 0.316 µM
  viability, T/C: 0.21%
Second compound 10 µM, first compound 1 µM
  viability, T/C: 0.2%
Second compound 10 µM, first compound 3.16 µM
  viability, T/C: 0.15%
Second compound 10 µM, first compound 10 µM
  viability, T/C: 0.17%

## NC(=O)C(=Cn1cnc(-c2cc(C(F)(F)F)cc(C(F)(F)F)c2)n1)c1cncnc1 + CN1CCN(c2cc(C(=O)Nc3cc4cc(-c5cnn(C)c5)ccc4cn3)ccn2)CC1
Second compound 0.0316 µM
  IC50: 0.53 µM
Second compound 0.1 µM
  IC50: 0.167 µM
Second compound 0.316 µM
  IC50: < 0.00949 µM
Second compound 1 µM
  IC50: < 0.00949 µM
Second compound 3.16 µM
  IC50: < 0.00949 µM
Second compound 10 µM
  IC50: < 0.00949 µM
Second compound 0.0316 µM, first compound 0.00949 µM
  viability, T/C: 93.1%
Second compound 0.0316 µM, first compound 0.03 µM
  viability, T/C: 96.2%
Second compound 0.0316 µM, first compound 0.0949 µM
  viability, T/C: 70.5%
Second compound 0.0316 µM, first compound 0.3 µM
  viability, T/C: 65.9%
Second compound 0.0316 µM, first compound 0.949 µM
  viability, T/C: 36.9%
Second compound 0.0316 µM, first compound 3 µM
  viability, T/C: 9.03%
Second compound 0.1 µM, first compound 0.00949 µM
  viability, T/C: 81.8%
Second compound 0.1 µM, first compound 0.03 µM
  viability, T/C: 65.2%
Second compound 0.1 µM, first compound 0.0949 µM
  viability, T/C: 62.8%
Second compound 0.1 µM, first compound 0.3 µM
  viability, T/C: 41%
Second compound 0.1 µM, first compound 0.949 µM
  viability, T/C: 20.2%
Second compound 0.1 µM, first compound 3 µM
  viability, T/C: 2%
Second compound 0.316 µM, first compound 0.00949 µM
  viability, T/C: 0.71%
Second compound 0.316 µM, first compound 0.03 µM
  viability, T/C: 0.67%
Second compound 0.316 µM, first compound 0.0949 µM
  viability, T/C: 0.65%
Second compound 0.316 µM, first compound 0.3 µM
  viability, T/C: 0.1%
Second compound 0.316 µM, first compound 0.949 µM
  viability, T/C: 0.08%
Second compound 0.316 µM, first compound 3 µM
  viability, T/C: 0.11%
Second compound 1 µM, first compound 0.00949 µM
  viability, T/C: 0.11%
Second compound 1 µM, first compound 0.03 µM
  viability, T/C: 0.15%
Second compound 1 µM, first compound 0.0949 µM
  viability, T/C: 1.14%
Second compound 1 µM, first compound 0.3 µM
  viability, T/C: 0.08%
Second compound 1 µM, first compound 0.949 µM
  viability, T/C: 0.08%
Second compound 1 µM, first compound 3 µM
  viability, T/C: 0.06%
Second compound 3.16 µM, first compound 0.00949 µM
  viability, T/C: 0.08%
Second compound 3.16 µM, first compound 0.03 µM
  viability, T/C: 0.28%
Second compound 3.16 µM, first compound 0.0949 µM
  viability, T/C: 0.13%
Second compound 3.16 µM, first compound 0.3 µM
  viability, T/C: 0.13%
Second compound 3.16 µM, first compound 0.949 µM
  viability, T/C: 0.1%
Second compound 3.16 µM, first compound 3 µM
  viability, T/C: 0.72%
Second compound 10 µM, first compound 0.00949 µM
  viability, T/C: 1.5%
Second compound 10 µM, first compound 0.03 µM
  viability, T/C: 0.12%
Second compound 10 µM, first compound 0.0949 µM
  viability, T/C: 0.2%
Second compound 10 µM, first compound 0.3 µM
  viability, T/C: 0.2%
Second compound 10 µM, first compound 0.949 µM
  viability, T/C: 0.22%
Second compound 10 µM, first compound 3 µM
  viability, T/C: 0.23%
